# Read-outs that look alike come from different tables or passages of the source.
# How the values were obtained:
# Assay in all cases: PDSP off-target radioligand binding assay
# 5-HT1E = target: T1, 5-HT1E (Homo sapiens, UniProt P28566)
# T1 construct: NIMH PDSP
# Experimental: (§1) Table S1. Off binding data of CW24.
# (§2) The off-target binding assays were performed at PDSP with their standard protocol (https://pdspdb.unc.edu/pdspWeb/content/UNC-CH%20Protocol%20Book.pdf). In radioligand binding assays, CW24 was tested at a single concentration (10 µM) and in quadruplicate in 96-well plates. The binding assays were carried out in a final of volume of 125 µl per well in appropriate binding buffers. The hot ligand concentration is usually at a concentration close to the Kd (unless otherwise indicated). Total binding and nonspecific binding are determined in the absence and presence of 10 µM of the appropriate reference compound, respectively. In brief, plates are usually incubated at room temperature and in the dark for 90 mins. Reactions are stopped by vacuum filtration onto 0.3% polyethyleneimine (PEI) soaked 96-well filter mats using a 96-well Filtermate harvester, followed by three washes with cold wash buffers (for details, see Tables 2 to 24). Scintillation cocktail is then melted onto the microwave-dried filters on a hot plate and radioactivity is counted in a Microbeta counter.
# (§3) Receptor % Inhibition 1 % Inhibition 2 % Inhibition 3 % Inhibition 4 Mean±SD %
# 5-HT5A = target: T2, 5-HT5A (Homo sapiens, UniProt P47898)
# T2 construct: NIMH PDSP
# T2 sequence (P47898 whole entry, species assumed): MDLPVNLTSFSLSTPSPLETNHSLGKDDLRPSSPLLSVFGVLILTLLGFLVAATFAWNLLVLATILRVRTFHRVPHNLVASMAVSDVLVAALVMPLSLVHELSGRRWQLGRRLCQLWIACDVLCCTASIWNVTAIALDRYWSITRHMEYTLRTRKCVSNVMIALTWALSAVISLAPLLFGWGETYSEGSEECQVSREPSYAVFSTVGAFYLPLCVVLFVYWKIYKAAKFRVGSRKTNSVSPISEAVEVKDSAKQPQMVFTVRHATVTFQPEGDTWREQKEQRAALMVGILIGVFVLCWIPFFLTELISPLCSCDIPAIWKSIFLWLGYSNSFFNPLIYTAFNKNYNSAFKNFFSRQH
# Experimental: as §1, §2, §3
# Alpha1B = target: T3, Alpha1B (Homo sapiens, UniProt P35368)
# T3 construct: NIMH PDSP
# T3 sequence (P35368 1-520): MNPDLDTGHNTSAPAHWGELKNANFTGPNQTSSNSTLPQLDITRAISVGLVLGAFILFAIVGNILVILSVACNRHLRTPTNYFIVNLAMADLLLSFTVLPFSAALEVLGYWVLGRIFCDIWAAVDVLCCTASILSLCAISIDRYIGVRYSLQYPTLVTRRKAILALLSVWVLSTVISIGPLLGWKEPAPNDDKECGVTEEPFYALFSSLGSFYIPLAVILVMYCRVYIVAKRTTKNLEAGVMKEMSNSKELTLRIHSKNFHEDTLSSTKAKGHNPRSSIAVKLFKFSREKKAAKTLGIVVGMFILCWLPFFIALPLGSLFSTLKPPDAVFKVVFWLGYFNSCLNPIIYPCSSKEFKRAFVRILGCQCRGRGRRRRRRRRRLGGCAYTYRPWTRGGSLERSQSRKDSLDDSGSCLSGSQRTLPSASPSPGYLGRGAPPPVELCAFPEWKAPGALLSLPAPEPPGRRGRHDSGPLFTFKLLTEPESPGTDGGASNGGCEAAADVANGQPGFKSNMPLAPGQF
# Experimental: as §1, §2, §3
# Alpha1D = target: T4, Alpha1D (Homo sapiens, UniProt P25100)
# T4 construct: NIMH PDSP
# T4 sequence (P25100 1-572): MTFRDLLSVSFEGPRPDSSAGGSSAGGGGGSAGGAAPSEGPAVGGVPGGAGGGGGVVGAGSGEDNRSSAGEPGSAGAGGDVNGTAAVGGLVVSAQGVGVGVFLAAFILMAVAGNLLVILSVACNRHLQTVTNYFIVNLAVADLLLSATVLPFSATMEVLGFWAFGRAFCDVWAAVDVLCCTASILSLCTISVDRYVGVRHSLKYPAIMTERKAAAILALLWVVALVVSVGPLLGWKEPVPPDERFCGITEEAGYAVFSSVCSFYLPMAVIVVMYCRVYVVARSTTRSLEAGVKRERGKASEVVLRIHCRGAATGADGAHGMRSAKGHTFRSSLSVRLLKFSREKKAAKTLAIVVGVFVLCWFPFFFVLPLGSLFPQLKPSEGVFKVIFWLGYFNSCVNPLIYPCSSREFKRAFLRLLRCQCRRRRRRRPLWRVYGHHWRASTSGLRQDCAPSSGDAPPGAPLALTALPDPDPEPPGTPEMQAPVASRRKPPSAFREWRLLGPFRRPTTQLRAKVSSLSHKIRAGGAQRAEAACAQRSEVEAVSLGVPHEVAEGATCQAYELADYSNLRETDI
# Experimental: as §1, §2, §3
# D4 = target: T5, D4 (Homo sapiens, UniProt P21917)
# T5 construct: NIMH PDSP
# T5 sequence (P21917 1-419): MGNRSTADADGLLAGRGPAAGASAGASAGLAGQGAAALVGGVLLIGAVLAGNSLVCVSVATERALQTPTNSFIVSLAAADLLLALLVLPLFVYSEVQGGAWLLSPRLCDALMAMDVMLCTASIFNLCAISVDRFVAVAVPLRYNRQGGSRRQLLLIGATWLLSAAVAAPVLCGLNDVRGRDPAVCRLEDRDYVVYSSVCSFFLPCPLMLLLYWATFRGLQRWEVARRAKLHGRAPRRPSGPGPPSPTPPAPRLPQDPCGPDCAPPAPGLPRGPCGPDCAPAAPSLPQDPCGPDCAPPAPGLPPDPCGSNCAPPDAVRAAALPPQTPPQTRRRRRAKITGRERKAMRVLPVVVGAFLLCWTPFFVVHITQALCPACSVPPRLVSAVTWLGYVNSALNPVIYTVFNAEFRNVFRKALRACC
# Experimental: as §1, §2, §3
# DOR = DOR (Homo sapiens, UniProt P41143)
# Chain of DOR (P41143 whole entry): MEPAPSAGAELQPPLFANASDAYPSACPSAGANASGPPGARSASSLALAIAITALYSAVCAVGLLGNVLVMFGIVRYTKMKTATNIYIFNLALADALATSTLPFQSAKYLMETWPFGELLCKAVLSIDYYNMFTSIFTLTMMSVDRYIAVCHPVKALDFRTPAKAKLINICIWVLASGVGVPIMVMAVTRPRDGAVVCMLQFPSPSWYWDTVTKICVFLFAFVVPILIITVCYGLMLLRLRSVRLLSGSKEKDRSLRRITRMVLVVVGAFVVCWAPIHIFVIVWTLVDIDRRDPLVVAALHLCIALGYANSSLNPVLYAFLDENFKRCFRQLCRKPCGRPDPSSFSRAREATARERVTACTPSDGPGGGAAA
# Experimental: as §1, §2, §3
# H3 = H3 (Homo sapiens, UniProt Q9Y5N1)
# Chain of H3 (Q9Y5N1 whole entry): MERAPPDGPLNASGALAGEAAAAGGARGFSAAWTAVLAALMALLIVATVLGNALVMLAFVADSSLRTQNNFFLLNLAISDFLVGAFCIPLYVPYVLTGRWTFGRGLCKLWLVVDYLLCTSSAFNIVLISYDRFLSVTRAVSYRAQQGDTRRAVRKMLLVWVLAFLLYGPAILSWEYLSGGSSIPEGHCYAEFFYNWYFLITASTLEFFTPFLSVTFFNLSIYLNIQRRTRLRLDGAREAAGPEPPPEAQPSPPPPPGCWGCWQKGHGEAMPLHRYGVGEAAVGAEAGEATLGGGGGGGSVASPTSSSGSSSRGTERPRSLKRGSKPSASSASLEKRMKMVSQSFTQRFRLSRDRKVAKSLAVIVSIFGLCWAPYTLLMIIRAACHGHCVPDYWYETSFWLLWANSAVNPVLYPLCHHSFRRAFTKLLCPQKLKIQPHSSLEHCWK
# Experimental: as §1, §2, §3
# M3 = M3 (Homo sapiens, UniProt P20309)
# Chain of M3 (P20309 whole entry): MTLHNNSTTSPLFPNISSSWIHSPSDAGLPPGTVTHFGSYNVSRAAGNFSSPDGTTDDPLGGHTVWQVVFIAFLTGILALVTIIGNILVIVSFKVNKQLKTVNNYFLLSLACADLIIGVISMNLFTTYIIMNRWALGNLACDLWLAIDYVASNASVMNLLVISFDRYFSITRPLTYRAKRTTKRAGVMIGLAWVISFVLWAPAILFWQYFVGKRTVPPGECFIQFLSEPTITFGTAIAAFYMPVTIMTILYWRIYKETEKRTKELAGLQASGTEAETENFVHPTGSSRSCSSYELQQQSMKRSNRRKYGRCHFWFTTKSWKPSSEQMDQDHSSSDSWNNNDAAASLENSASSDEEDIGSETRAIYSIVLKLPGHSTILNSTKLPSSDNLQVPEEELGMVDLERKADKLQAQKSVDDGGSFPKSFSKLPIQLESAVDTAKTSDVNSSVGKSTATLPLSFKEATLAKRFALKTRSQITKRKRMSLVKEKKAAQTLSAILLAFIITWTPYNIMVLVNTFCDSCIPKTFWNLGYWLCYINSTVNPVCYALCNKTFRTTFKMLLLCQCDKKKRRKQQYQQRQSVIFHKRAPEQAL
# Experimental: as §1, §2, §3
# Sigma 2 = details: 10 µM
# Experimental: as §1, §2, §3
# [1] = quadruplicate, read-out: Mean±SD % inhibition
# [2] = replicate 1, read-out: % Inhibition 1
# [3] = replicate 2, read-out: % Inhibition 2
# [4] = replicate 3, read-out: % Inhibition 3
# [5] = replicate 4, read-out: % Inhibition 4
# T1 sequence (P28566 whole entry, species assumed): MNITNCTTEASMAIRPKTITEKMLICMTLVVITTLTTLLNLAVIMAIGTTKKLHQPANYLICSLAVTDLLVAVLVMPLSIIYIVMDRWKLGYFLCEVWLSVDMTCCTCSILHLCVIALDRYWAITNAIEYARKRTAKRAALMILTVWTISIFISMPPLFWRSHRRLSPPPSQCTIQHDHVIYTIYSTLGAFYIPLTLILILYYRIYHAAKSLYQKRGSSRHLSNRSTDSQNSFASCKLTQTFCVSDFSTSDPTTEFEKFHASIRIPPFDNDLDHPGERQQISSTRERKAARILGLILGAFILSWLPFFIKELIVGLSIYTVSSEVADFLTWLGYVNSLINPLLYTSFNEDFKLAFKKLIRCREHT
compound,measurement,setting,value
COc1ccnc(N2CCC3(CCCN(Cc4cn(C)c5ccccc45)C3=O)CC2)n1 [CW24],inhibition at 10 µM,5-HT1E; [1],18.8 ± 12.2%
same,inhibition at 10 µM,5-HT1E; [2],31.3%
same,inhibition at 10 µM,5-HT1E; [3],19.5%
same,inhibition at 10 µM,5-HT1E; [4],22.5%
same,inhibition at 10 µM,5-HT1E; [5],2.07%
same,inhibition at 10 µM,5-HT5A; [1],-4.44 ± 7.73%
same,inhibition at 10 µM,5-HT5A; [2],5.59%
same,inhibition at 10 µM,5-HT5A; [3],-6.33%
same,inhibition at 10 µM,5-HT5A; [4],-13.1%
same,inhibition at 10 µM,5-HT5A; [5],-3.89%
same,inhibition at 10 µM,Alpha1B; [1],-20.7 ± 12.8%
same,inhibition at 10 µM,Alpha1B; [2],-6.11%
same,inhibition at 10 µM,Alpha1B; [3],-16.3%
same,inhibition at 10 µM,Alpha1B; [4],-36.7%
same,inhibition at 10 µM,Alpha1B; [5],-23.6%
same,inhibition at 10 µM,Alpha1D; [1],-13.7 ± 16.7%
same,inhibition at 10 µM,Alpha1D; [2],6.91%
same,inhibition at 10 µM,Alpha1D; [3],-32.8%
same,inhibition at 10 µM,Alpha1D; [4],-9.43%
same,inhibition at 10 µM,Alpha1D; [5],-19.4%
same,inhibition at 10 µM,D4; [1],67.2 ± 5.6%
same,inhibition at 10 µM,D4; [2],73.2%
same,inhibition at 10 µM,D4; [3],70%
same,inhibition at 10 µM,D4; [4],60.3%
same,inhibition at 10 µM,D4; [5],65.3%
same,inhibition at 10 µM,DOR; [1],13.9 ± 19.1%
same,inhibition at 10 µM,DOR; [2],41%
same,inhibition at 10 µM,DOR; [3],8.06%
same,inhibition at 10 µM,DOR; [4],10.6%
same,inhibition at 10 µM,DOR; [5],-3.98%
same,inhibition at 10 µM,H3; [1],-9.38 ± 11.9%
same,inhibition at 10 µM,H3; [2],-25%
same,inhibition at 10 µM,H3; [3],-12.5%
same,inhibition at 10 µM,H3; [4],0%
same,inhibition at 10 µM,H3; [5],0%
same,inhibition at 10 µM,M3; [1],-9.56 ± 5.94%
same,inhibition at 10 µM,M3; [2],-5.69%
same,inhibition at 10 µM,M3; [3],-3.65%
same,inhibition at 10 µM,M3; [4],-12.4%
same,inhibition at 10 µM,M3; [5],-16.5%
same,Mean±SD % inhibition,Sigma 2; quadruplicate,27.22 ±10.59%
same,% Inhibition 1,Sigma 2; replicate 1,42.39%
same,% Inhibition 2,Sigma 2; replicate 2,19.45%
same,% Inhibition 3,Sigma 2; replicate 3,26.56%
same,% Inhibition 4,Sigma 2; replicate 4,20.46%
